Patent US20230212549A1, “COMPOUNDS COMPRISING A […] LIGAND AND USE THEREOF” (priority 2021, published 2023)
Numbered stars: 1 amine (or outer) side, 2 acyl side, 3 side chain; on linkers, the order of the positions; unused ones are H or OH. Bridge positions count the residues as written; N and C are the ends. Square brackets hold non-standard residues; d marks the D form. Peptide text beside a SMILES is read from it. * marks the point of attachment. ξ: configuration not given here. X17 = NC(=O)[C@H](CCCCNC(=O)CN1CCN(CC(=O)O)CCN(CC(=O)O)CCN(CC(=O)O)CC1)NC(=O)CCC(=O)NCCCOCCOCCOCCCN*; TBMB(SCH2CH2NH-DOTA) = O=C(O)CN1CCN(CC(=O)O)CCN(CC(=O)NCCSCc2cc(C[*:1])cc(C[*:2])c2)CCN(CC(=O)O)CC1; X11 = O=C(O)CN1CCN(CC(=O)O)CCN(C(CCC(=O)NCCSCc2cc(C[*:1])cc(C[*:2])c2)C(=O)O)CC1; 1Nal = N[C@@H](Cc1cccc2ccccc12)C(=O)O; mXylylene = c1cc(C[*:1])cc(C[*:2])c1; Hexanoyl = CCCCCC(=O)*; CO = O=C([*:1])[*:2]; ξC = NC(CS)C(=O)O; NHBu = CCCCN*

Experiments:
[1] = molecular target: T1, FAP-expressing human WI-38 fibroblasts (Homo sapiens, UniProt Q12884); assay: Competitive FACS binding assay
T1 construct: FAP-expressing human WI-38 fibroblasts (ECACC) were cultured in EMEM; host or cells: WI-38 human fibroblasts
T1 sequence (Q12884 whole entry): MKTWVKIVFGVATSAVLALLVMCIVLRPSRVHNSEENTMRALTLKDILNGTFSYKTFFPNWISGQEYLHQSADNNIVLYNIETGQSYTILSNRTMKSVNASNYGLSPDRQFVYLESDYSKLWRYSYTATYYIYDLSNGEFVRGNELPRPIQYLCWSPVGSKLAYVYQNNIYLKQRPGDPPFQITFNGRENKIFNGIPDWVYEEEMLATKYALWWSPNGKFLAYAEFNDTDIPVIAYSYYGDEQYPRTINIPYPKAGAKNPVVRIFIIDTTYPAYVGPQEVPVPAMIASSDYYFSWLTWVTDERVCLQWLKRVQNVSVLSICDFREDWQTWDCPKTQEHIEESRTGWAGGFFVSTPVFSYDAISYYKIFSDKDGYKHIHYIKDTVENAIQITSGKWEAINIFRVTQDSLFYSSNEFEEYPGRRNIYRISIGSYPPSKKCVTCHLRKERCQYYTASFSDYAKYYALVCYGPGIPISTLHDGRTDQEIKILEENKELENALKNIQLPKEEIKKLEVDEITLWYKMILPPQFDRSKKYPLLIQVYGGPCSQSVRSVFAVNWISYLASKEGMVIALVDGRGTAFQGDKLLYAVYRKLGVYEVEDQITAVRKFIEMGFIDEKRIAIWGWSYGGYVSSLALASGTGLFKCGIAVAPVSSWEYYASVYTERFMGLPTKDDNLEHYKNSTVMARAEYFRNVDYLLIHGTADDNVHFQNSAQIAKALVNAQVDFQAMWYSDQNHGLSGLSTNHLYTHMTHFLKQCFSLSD
Protocol: Cells were analyzed in an Attune NxT flow cytometer. […] […].
Cells were analyzed in an Attune NxT flow cytometer. […]

Human recombinant FAP [2] = molecular target: T2, Human recombinant FAP (Homo sapiens, UniProt Q12884); assay: Surface plasmon resonance (Biacore) assay; assay type: binding
T2 sequence (Q12884 whole entry): as above

Human recombinant FAP [3] = molecular target: T2, Human recombinant FAP; assay: FRET-based FAP protease activity assay; assay type: biochemical; design: purchased R&D systems 3715-SE
in vivo = conditions: female, athymic nude, mouse, iv, ^68Ga-labeled, PET/CT; for tissue uptake at 0.25 h: 0.25 h post tracer injection; for tissue uptake at 1 h: 1 h post tracer injection; for tissue uptake at 3 h: 3 h post tracer injection
[4] = pIC50 Category (Activity), FRET-based FAP protease activity assay, recombinant human FAP, 37° C.

| Compound | IC50 [1] | Kd (Human recombinant FAP [2]) | IC50 (Human recombinant FAP [3]; [4]) | further results |
| --- | --- | --- | --- | --- |
| CCCCCC(=O)N[C@H]1CSCc2cccc(c2)CSC[C@@H](C(=O)N[C@@H](CC(=O)O)C(=O)NCCCOCCOCCOCCCNC(=O)CCC(=O)N[C@@H](CCCCNC(=O)CN2CCN(CC(=O)O)CCN(CC(=O)O)CCN(CC(=O)O)CC2)C(N)=O)NC(=O)[C@H](Cc2ccccc2)NC(=O)[C@H](CCC(N)=O)NC(=O)[C@H]([C@@H](C)O)NC(=O)[C@@H]2CCCN2C(=O)[C@@H]2CCCN2C1=O [3BP-3395, Hex-[Cys(3MeBn)-Pro-Pro-Thr-Gln-Phe-Cys]-Asp-Ttds-Lys(DOTA)-NH2] (Hexanoyl-CPPTQFCD-X17; linker 1-7 via mXylylene) | < 10 nM | < 10 nM | < 10 nM |  |
| CCCCCC(=O)N[C@H]1CSCc2cccc(c2)CSC[C@@H](C(=O)N[C@@H](CC(=O)O)C(=O)NCCCOCCOCCOCCCNC(=O)CCC(=O)N[C@@H](CCCCNC(=O)CN2CCN(CC(=O)O)CCN(CC(=O)O)CCN(CC(=O)O)CC2)C(N)=O)NC(=O)[C@H](Cc2ccccc2)NC(=O)[C@H](CCC(=O)O)NC(=O)[C@H]([C@@H](C)O)NC(=O)[C@@H]2CCCN2C(=O)[C@@H]2CCCN2C1=O [3BP-3396, Hex-[Cys(3MeBn)-Pro-Pro-Thr-Glu-Phe-Cys]-Asp-Ttds-Lys(DOTA)-NH2] (Hexanoyl-CPPTEFCD-X17; linker 1-7 via mXylylene) | < 10 nM | < 10 nM | < 10 nM |  |
| CCCCCC(=O)N[C@H]1CSCc2cc(CSCCNC(=O)CN3CCN(CC(=O)O)CCN(CC(=O)O)CCN(CC(=O)O)CC3)cc(c2)CSC[C@@H](C(=O)O)NC(=O)[C@H](Cc2cccc3ccccc23)NC(=O)[C@H](CCC(N)=O)NC(=O)[C@H]([C@@H](C)O)NC(=O)[C@@H]2CCCN2C(=O)[C@@H]2CCCN2C1=O [3BP-3650, Hex-[Cys(tMeBn(DOTA-AET))-Pro-Pro-Thr-Gln-1Ni-Cys]-OH] (Hexanoyl-CPPTQ[1Nal]C-OH; linker 1-7 via TBMB(SCH2CH2NH-DOTA)) | < 10 nM | < 10 nM | < 10 nM |  |
| CCCCCC(=O)N[C@H]1CSCc2cc(CSCCNC(=O)CN3CCN(CC(=O)O)CCN(CC(=O)O)CCN(CC(=O)O)CC3)cc(c2)CSC[C@@H](C(N)=O)NC(=O)[C@H](Cc2ccccc2)NC(=O)[C@H](CCC(N)=O)NC(=O)[C@H]([C@@H](C)O)NC(=O)[C@@H]2CCCN2C(=O)[C@@H]2CCCN2C1=O [3BP-3652, Hex-[Cys(tMeBn(DOTA-AET))-Pro-Pro-Thr-Gln-Phe-Cys]-NH2] | < 10 nM | < 10 nM | < 10 nM |  |
| CCCCCC(=O)N[C@H]1CSCc2cc(CSCCNC(=O)CN3CCN(CC(=O)O)CCN(CC(=O)O)CCN(CC(=O)O)CC3)cc(c2)CSC[C@@H](C(N)=O)NC(=O)[C@H](Cc2ccccc2)NC(=O)[C@H](CCC(=O)O)NC(=O)[C@H]([C@@H](C)O)NC(=O)[C@@H]2CCCN2C(=O)[C@@H]2CCCN2C1=O [3BP-3653, Hex-[Cys(tMeBn(DOTA-AET))-Pro-Pro-Thr-Glu-Phe-Cys]-NH2] (Hexanoyl-CPPTEFC-NH2; linker 1-7 via TBMB(SCH2CH2NH-DOTA)) | < 10 nM | < 10 nM | < 10 nM |  |
| CCCCCC(=O)N[C@H]1CSCc2cc(CSCCNC(=O)CN3CCN(CC(=O)O)CCN(CC(=O)O)CCN(CC(=O)O)CC3)cc(c2)CSC[C@@H](C(=O)NCC(=O)O)NC(=O)[C@H](Cc2ccccc2)NC(=O)[C@H](CCC(N)=O)NC(=O)[C@H]([C@@H](C)O)NC(=O)[C@@H]2CCCN2C(=O)[C@@H]2CCCN2C1=O [3BP-3656, Hex-[Cys(tMeBn(DOTA-AET))-Pro-Pro-Thr-Gln-Phe-Cys]-Gly-OH] (Hexanoyl-CPPTQFCG-OH; linker 1-7 via TBMB(SCH2CH2NH-DOTA)) | < 10 nM | < 10 nM | < 10 nM |  |
| CCCCCC(=O)N[C@H]1CSCc2cc(CSCCNC(=O)CN3CCN(CC(=O)O)CCN(CC(=O)O)CCN(CC(=O)O)CC3)cc(c2)CSC[C@@H](C(=O)NCCCC(=O)O)NC(=O)[C@H](Cc2ccccc2)NC(=O)[C@H](CCC(N)=O)NC(=O)[C@H]([C@@H](C)O)NC(=O)[C@@H]2CCCN2C(=O)[C@@H]2CCCN2C1=O [3BP-3657, Hex-[Cys(tMeBn(DOTA-AET))-Pro-Pro-Thr-Gln-Phe-Cys]-Gab-OH] | < 10 nM | < 10 nM | < 10 nM |  |
| CCCCCC(=O)N[C@H]1CSCc2cc(CSCCNC(=O)CN3CCN(CC(=O)O)CCN(CC(=O)O)CCN(CC(=O)O)CC3)cc(c2)CSC[C@@H](C(=O)N[C@@H](CO)C(=O)O)NC(=O)[C@H](Cc2ccccc2)NC(=O)[C@H](CCC(N)=O)NC(=O)[C@H]([C@@H](C)O)NC(=O)[C@@H]2CCCN2C(=O)[C@@H]2CCCN2C1=O [3BP-3658, Hex-[Cys(tMeBn(DOTA-AET))-Pro-Pro-Thr-Gln-Phe-Cys]-Ser-OH] (Hexanoyl-CPPTQFCS-OH; linker 1-7 via TBMB(SCH2CH2NH-DOTA)) | < 10 nM | < 10 nM | < 10 nM |  |
| CCCCCC(=O)N[C@H]1CSCc2cc(CSCCNC(=O)CN3CCN(CC(=O)O)CCN(CC(=O)O)CCN(CC(=O)O)CC3)cc(c2)CSC[C@@H](C(=O)N(C)CC(=O)O)NC(=O)[C@H](Cc2ccccc2)NC(=O)[C@H](CCC(N)=O)NC(=O)[C@H]([C@@H](C)O)NC(=O)[C@@H]2CCCN2C(=O)[C@@H]2CCCN2C1=O [3BP-3659, Hex-[Cys(tMeBn(DOTA-AET))-Pro-Pro-Thr-Gln-Phe-Cys]-Nmg-OH] | < 10 nM | < 10 nM | < 10 nM |  |
| CCCCCC(=O)N[C@H]1CSCc2cc(CSCCNC(=O)CN3CCN(CC(=O)O)CCN(CC(=O)O)CCN(CC(=O)O)CC3)cc(c2)CSC[C@@H](C(=O)N[C@H](CC(=O)O)Cc2ccccc2)NC(=O)[C@H](Cc2ccccc2)NC(=O)[C@H](CCC(N)=O)NC(=O)[C@H]([C@@H](C)O)NC(=O)[C@@H]2CCCN2C(=O)[C@@H]2CCCN2C1=O [3BP-3660, Hex-[Cys(tMeBn(DOTA-AET))-Pro-Pro-Thr-Gin-Phe-Cys]-Bhf-OH] | < 10 nM | < 10 nM | < 10 nM |  |
| CCCCCC(=O)N[C@H]1CSCc2cc(CSCCNC(=O)CCC(=O)NCCCOCCOCCOCCCNC(=O)CCC(=O)NCCCOCCOCCOCCCNC(=O)CCC(=O)NCCCOCCOCCOCCCNC(=O)CCC(=O)NCCCOCCOCCOCCCNC(=O)c3ccc4c(c3)C(=O)OC43c4ccc(N)c(S(=O)(=O)O)c4Oc4c3ccc(N)c4S(=O)(=O)O)cc(c2)CSC[C@@H](C(=O)O)NC(=O)[C@H](Cc2ccccc2)NC(=O)[C@H](CCC(N)=O)NC(=O)[C@H]([C@@H](C)O)NC(=O)[C@@H]2CCCN2C(=O)[C@@H]2CCCN2C1=O [3BP-4232, Hex--[C(tMeBn(AF488--Ttds--Ttds--Ttds--Ttds--AET))-PPTQFC]-OH] |  | 100 to 794 nM |  |  |
| CCCCNC(=O)N[C@H]1CSCc2cc(CSCCNC(=O)CCC(C(=O)O)N3CCN(CC(=O)O)CCN(CC(=O)O)CC3)cc(c2)CSCC(C(=O)O)NC(=O)[C@H](Cc2ccccc2)NC(=O)[C@H](CCC(=O)O)NC(=O)[C@H]([C@@H](C)O)NC(=O)[C@@H]2CCCN2C(=O)[C@@H]2CCCN2C1=O (stereo partly drawn) [3BP-4724, nBu-CAyl-[Cys(tMeBn(NODAGA-AET))-Pro-Pro-Thr-Glu-Phe-Cys]-OH] ({NHBu-CO}-CPPTEF[ξC]-OH; linker 1-7 via X11) | < 10 nM |  |  | tissue uptake at 0.25 h (in vivo; blood pool surrogate (BPS), uptake BPS 0.25 h, BPS (blood pool surrogate)): 2.17 %ID/g; tissue uptake at 1 h (in vivo; blood pool surrogate (BPS), uptake BPS 1 h, BPS (blood pool surrogate)): 1.04 %ID/g; tissue uptake at 3 h (in vivo; blood pool surrogate (BPS), uptake BPS 3 h, BPS (blood pool surrogate)): 0.49 %ID/g; tissue uptake at 0.25 h (in vivo; kidneys, uptake Kidneys 0.25 h): 4.28 %ID/g; tissue uptake at 1 h (in vivo; kidneys, uptake Kidneys 1 h): 1.87 %ID/g; tissue uptake at 3 h (in vivo; kidneys, uptake Kidneys 3 h): 0.86 %ID/g; tissue uptake at 0.25 h (in vivo; tumor, uptake Tumor 0.25 h, HEK-FAP tumor): 3.87 %ID/g; tissue uptake at 1 h (in vivo; tumor, uptake Tumor 1 h, HEK-FAP tumor): 4.37 %ID/g; tissue uptake at 3 h (in vivo; tumor, uptake Tumor 3 h, HEK-FAP tumor): 4.46 %ID/g; IC50 (Human recombinant FAP [3]; pIC50 Category (activity), Recombinant human FAP): 10 to 79.4 nM |
